Assay results from patent publication US20240376163A1, “PEPTIDE FOR INHIBITING CALCINEURIN AND USE THEREOF” (Seoul National University R&DB Foundation, priority 2023, published 2024).

System: Jurkat T cells
Experiment: mRNA sequencing of activated Jurkat T cells
Format: cell-based, human

## PEITVTPPTP [CABIN1-L-1-2]
P+I
  GPR108 FPKM: 37.394 FPKM
  GPR183 FPKM: 4.735 FPKM
  GRAP2 FPKM: 11.197 FPKM
  GRK5 FPKM: 8.975 FPKM
  GZMH FPKM: 13.893 FPKM
  HAPLN3 FPKM: 58.345 FPKM
  HDC FPKM: 23.209 FPKM
  HHIP FPKM: 6.793 FPKM
  HHIP-AS1 FPKM: 29.854 FPKM
  HIVEP2 FPKM: 9.184 FPKM
  HSP90B1 FPKM: 910.415 FPKM
  HSP90B2P FPKM: 9.619 FPKM
  HSPA5 FPKM: 449.173 FPKM
  ICAM1 FPKM: 12.914 FPKM
  ID2 FPKM: 15.335 FPKM
  IER2 FPKM: 126.884 FPKM
  IER3 FPKM: 26.899 FPKM
  IFFO2 FPKM: 3.163 FPKM
  IFIH1 FPKM: 12.37 FPKM
  IFNG FPKM: 8.858 FPKM
  IGLL1 FPKM: 3.244 FPKM
  IGSF9B FPKM: 8.992 FPKM
  IL2RA FPKM: 10.904 FPKM
  IL3 FPKM: 6.298 FPKM
  IL4I1 FPKM: 7.279 FPKM
  IL16 FPKM: 8.304 FPKM
  IL22 FPKM: 3.136 FPKM
  IL23A FPKM: 17.874 FPKM
  IMPA2 FPKM: 2.882 FPKM
  IRF8 FPKM: 1.914 FPKM
  IRF9 FPKM: 39.375 FPKM
  ISM1 FPKM: 3.737 FPKM
  JAK3 FPKM: 8.871 FPKM
  JUN FPKM: 3.58 FPKM
  JUNB FPKM: 56.126 FPKM
  KBTBD11 FPKM: 2.772 FPKM
  KCNK5 FPKM: 4.904 FPKM
  KCTD11 FPKM: 2.303 FPKM
  KIAA0922 FPKM: 12.911 FPKM
  KIF1B FPKM: 13.254 FPKM
  KIF3B FPKM: 14.583 FPKM
  KLF2 FPKM: 1.375 FPKM
  KSR1 FPKM: 5.998 FPKM
  LAIR2 FPKM: 3.695 FPKM
  LAMP3 FPKM: 9.828 FPKM
  LAX1 FPKM: 7.578 FPKM
  LDLRAP1 FPKM: 0.878 FPKM
  LIME1 FPKM: 11.879 FPKM
  LINC00152 FPKM: 31.801 FPKM
  LINC00426 FPKM: 0.675 FPKM
  LINC00528 FPKM: 5.927 FPKM
  LINC00539 FPKM: 2.351 FPKM
  LINC00977 FPKM: 0.266 FPKM
  LOC729603 FPKM: 3.329 FPKM
  LRRC8B FPKM: 4.298 FPKM
  LRRC45 FPKM: 4.264 FPKM
  LYPD3 FPKM: 2.662 FPKM
  MAP2K3 FPKM: 43.237 FPKM
  MAP2K6 FPKM: 0.955 FPKM
  MBOAT2 FPKM: 3.202 FPKM
  MCM4 FPKM: 27.291 FPKM
  MCM5 FPKM: 33.895 FPKM
  METRNL FPKM: 7.881 FPKM
  MIR221 FPKM: 10.092 FPKM
  MIR4435-1HG FPKM: 16.303 FPKM
  MIR6891 FPKM: 31.815 FPKM
  MMP10 FPKM: 22.372 FPKM
  MRPL39 FPKM: 188.834 FPKM
  MYO1D FPKM: 5.995 FPKM
  MYO1G FPKM: 65.452 FPKM
  MYO7B FPKM: 12.661 FPKM
  NAMPT FPKM: 54.272 FPKM
  NDFIP1 FPKM: 24.432 FPKM
  NDFIP2 FPKM: 12.598 FPKM
  NDST3 FPKM: 5.621 FPKM
  NEIL3 FPKM: 8.336 FPKM
  NEXN FPKM: 5.587 FPKM
  NFE2L3 FPKM: 28.495 FPKM
  NFKBIA FPKM: 70.837 FPKM
  NFKBID FPKM: 8.294 FPKM
  NFKBIE FPKM: 11.793 FPKM
  NINJ1 FPKM: 54.452 FPKM
  NKD2 FPKM: 3.105 FPKM
  NKX3-1 FPKM: 8.412 FPKM
  NLRC5 FPKM: 37.7 FPKM
  NPY FPKM: 4.799 FPKM
  NR4A1 FPKM: 34.85 FPKM
  NR4A2 FPKM: 0.356 FPKM
  NRROS FPKM: 26.059 FPKM
  NT5M FPKM: 1.643 FPKM
  NXN FPKM: 1.571 FPKM
  OAS3 FPKM: 18.24 FPKM
  OSBPL3 FPKM: 23.298 FPKM
  PARP9 FPKM: 84.386 FPKM
  PARP14 FPKM: 72.911 FPKM
  PCBP3 FPKM: 4.642 FPKM
  PDE3B FPKM: 5.194 FPKM
  PEAK1 FPKM: 9.633 FPKM
  PELI1 FPKM: 8.465 FPKM
  PHEX FPKM: 0.786 FPKM
  PHF7 FPKM: 3.075 FPKM
  PHLDA1 FPKM: 52.893 FPKM
  PIDD1 FPKM: 4.471 FPKM
  PIM3 FPKM: 72.895 FPKM
  PKIA FPKM: 18.138 FPKM
  PLAU FPKM: 82.517 FPKM
  PLEKHO1 FPKM: 36.376 FPKM
  PLK3 FPKM: 7.036 FPKM
  PMAIP1 FPKM: 37.469 FPKM
  PMEPA1 FPKM: 2.393 FPKM
  PODXL FPKM: 1.509 FPKM
  POU3F2 FPKM: 0.696 FPKM
  PPFIBP1 FPKM: 12.117 FPKM
  PPM1H FPKM: 4.178 FPKM
  PRKCA FPKM: 11.132 FPKM
  PTK2 FPKM: 13.391 FPKM
  PTPN22 FPKM: 5.119 FPKM
  PTPRE FPKM: 14.28 FPKM
  PWWP2B FPKM: 3.446 FPKM
  PXMP2 FPKM: 7.334 FPKM
  RAG1 FPKM: 0.265 FPKM
  RAG2 FPKM: 0.385 FPKM
  RAP1GAP2 FPKM: 0.285 FPKM
  RAP1GAP FPKM: 1.799 FPKM
  RDH10 FPKM: 5.524 FPKM
  REL FPKM: 5.699 FPKM
  RELB FPKM: 40.689 FPKM
  RGS3 FPKM: 2.303 FPKM
  RGS16 FPKM: 5.595 FPKM
  RMI1 FPKM: 8.198 FPKM
  RORB FPKM: 3.292 FPKM
  S1PR1 FPKM: 0.461 FPKM
  SAMD1 FPKM: 12.809 FPKM
  SECISBP2L FPKM: 12.883 FPKM
  SELPLG FPKM: 3.724 FPKM
  SEMA7A FPKM: 34.623 FPKM
  SERPINB2 FPKM: 14.103 FPKM
  SERPINE1 FPKM: 4.431 FPKM
  SH2B3 FPKM: 14.803 FPKM
  SH2D5 FPKM: 3.557 FPKM
  SH3BGRL3 FPKM: 351.357 FPKM
  SH3RF2 FPKM: 32.15 FPKM
  SHC4 FPKM: 0.686 FPKM
  SIT1 FPKM: 34.287 FPKM
  SIX6 FPKM: 19.444 FPKM
  SLC2A3 FPKM: 40.147 FPKM
  SLC2A4RG FPKM: 2.168 FPKM
  SLC7A5 FPKM: 226.44 FPKM
  SLC25A45 FPKM: 2.626 FPKM
  SLCO3A1 FPKM: 3.095 FPKM
  SLIT1 FPKM: 2.815 FPKM
  SMIM14 FPKM: 3.572 FPKM
  SOCS1 FPKM: 11.547 FPKM
  SOCS3 FPKM: 9.392 FPKM
  SOSTDC1 FPKM: 7.34 FPKM
  SPRY2 FPKM: 17.876 FPKM
  SREBF1 FPKM: 12.747 FPKM
  ST3GAL6-AS1 FPKM: 8.479 FPKM
  ST8SIA4 FPKM: 8.921 FPKM
  STARD4 FPKM: 16.105 FPKM
  STAT1 FPKM: 527.58 FPKM
  STAT5A FPKM: 3.055 FPKM
  STX11 FPKM: 2.972 FPKM
  SYTL1 FPKM: 12.555 FPKM
  TBC1D10C FPKM: 15.764 FPKM
  TBC1D20 FPKM: 18.427 FPKM
  TBX21 FPKM: 39.746 FPKM
  THY1 FPKM: 3.297 FPKM
  TIMP2 FPKM: 1.952 FPKM
  TM4SF1 FPKM: 0.907 FPKM
  TM7SF3 FPKM: 25.052 FPKM
  TMEM229B FPKM: 7.747 FPKM
  TMTC4 FPKM: 3.005 FPKM
  TNFRSF4 FPKM: 11.916 FPKM
  TNFRSF12A FPKM: 6.523 FPKM
  TNFRSF14 FPKM: 12.09 FPKM
  TNFSF9 FPKM: 2.651 FPKM
  TNRC6C FPKM: 4.485 FPKM
  TNS3 FPKM: 1.418 FPKM
  TRAF1 FPKM: 24.962 FPKM
  TRAT1 FPKM: 5.507 FPKM
  TRIM22 FPKM: 3.316 FPKM
  TSHR FPKM: 1.574 FPKM
  TSPAN2 FPKM: 2.119 FPKM
  TSPAN7 FPKM: 42.604 FPKM
  TTC28 FPKM: 1.926 FPKM
  TUBB2A FPKM: 10.912 FPKM
  TUBB3 FPKM: 5.423 FPKM
  UHRF1BP1L FPKM: 7.889 FPKM
  USP30-AS1 FPKM: 9.017 FPKM
  VANGL1 FPKM: 8.842 FPKM
  VASH2 FPKM: 4.245 FPKM
  VGF FPKM: 54.294 FPKM
  XAF1 FPKM: 16.914 FPKM
  XBP1 FPKM: 48.525 FPKM
  XYLB FPKM: 2.311 FPKM
  YBX2 FPKM: 1.594 FPKM
  ZC3H12A FPKM: 17.547 FPKM
Upon T-cell activation
  CD27 and CD70 expression: inhibited CD27 and CD70
  RNA levels of representative T-cell activation markers (IL2, IL3, NFATC1, CCL4, CCL20, CXCL8): reduced RNA levels of representative T-cell activation markers
